We go through 15 compounds from PubChem BioAssay (NCI).

Where “and” joins values, the source holds several entries; their conditions need not be identical. Equal entries are not always repeated.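 Cells were grown in 96-well plates and exposed to each compound for 48 hours at five concentrations; endpoints were interpolated linearly between bracketing concentrations, or set to the highest concentration if not reached. Abbreviation: GI50, concentration required for 50% inhibition of growth. TGI: concentration producing complete growth inhibition.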

Common to all, as to experiment: DTP human tumour cell line panel, 48 h
Test [1] has as its system HOP-92 NSCLC.
Test [2] relates to OVCAR-8 ovarian.
For test [3], the system named is HCC-2998 colon.
Test [4] deals with SK-MEL-2 melanoma.
In test [5] the test system is CAKI-1 renal.
For test [6], the system named is HT29 colon.
Test [7] concerns SNB-75 CNS.
Test [8] concerns HOP-62 NSCLC.
Test [9] concerns SK-OV-3 ovarian.
The test system of test [10] is NCI/ADR-RES ovarian.

As to `Cc1cc(C2CCCCC2)n(O)c(=O)c1`, the TGI (usually the concentration giving total growth inhibition) in test [1] was 21.5 µM; in [2], more than 100 µM; in [3], > 100 µM and 35.5 µM; in test [4], > 100 µM and 65.6 µM; in [5], 21.4 µM; in test [6], more than 100 µM. In addition, the TGI was > 100 µM and 58.1 µM in [7]; 40 µM in test [8]; more than 100 µM in test [9]; 14.9 µM in test [10]. Further, the GI50 (as a rule, the concentration at which growth is held to half of that of the control) is 1.92 µM in [2]; 2.94 µM in test [3]; 10.5 µM in test [4]; 1.8 µM in test [5]; 5.27 µM in [6]; 1.96 µM in test [7]. Besides, the GI50 in [8] was 0.913 µM; in test [9], 1.91 µM; in test [10] it was 1.22 µM.

For the compound `COc1cccc(N=Cc2c3ccccc3c(=O)n3c2oc2ccccc23)c1`, the GI50 in test [1] is 1.68 µM; in test [2], 7.82 µM; in test [3], 6.81 µM; in [4], more than 100 µM; in test [5], 2.92 µM; in test [6], 32.7 µM. The GI50 in [7] was 54.8 µM; in test [8], 13.7 µM; in test [9], 73.1 µM; in test [10], 11.6 µM. The TGI in test [1] was 30.7 µM; in [2], 39 µM; in test [3] it was 44.9 µM; in test [4], more than 100 µM; in test [5] it was 11.5 µM; in test [6], more than 100 µM. The TGI is more than 100 µM in test [7], 90.1 µM in test [8], more than 100 µM in [9] and 64.3 µM in test [10].

Consider `CCCNC(=S)N/N=C(\C)c1ccccn1`, for which the GI50 in [1] is 0.115 µM; in test [2] it was 0.0667 µM; in test [3], 0.523 µM; in test [4], 3.58 µM; in test [5] it was 0.22 µM; in test [6] it was less than 0.0127 µM. For the same compound, the GI50 in [7] was 1.5 µM; in [8], 0.517 µM; in test [9] it was 0.615 µM; in test [10], 0.0365 µM. Also, the TGI is more than 100 µM in test [1]; more than 100 µM in test [2]; more than 100 µM in [3]; more than 100 µM in [4]; more than 80.7 µM in test [5]; more than 100 µM in [6]. The TGI in test [7] is more than 25.7 µM; in test [8], 17.6 µM; in test [9], more than 100 µM; in [10], more than 100 µM.

`O=C(O)C(Sc1ccc(Cl)cc1)Sc1ccc(Cl)cc1`: the TGI in [1] was 68.2 µM; in [2] it was more than 100 µM; in test [3], 69.1 µM; in [4], 69.1 µM; in test [5] it was more than 100 µM; in [6], more than 100 µM. For the same compound, the TGI in test [7], in test [8], in test [9] and in test [10] was more than 100 µM in each case.

Turning to `COc1cc(Cn2c(-c3ccccc3)cc3c2-c2oncc2CC3)cc(OC)c1OC`, the GI50 was 12.7 µM in test [1]; 5.38 µM in test [2]; 2.21 µM in test [3]; 18.6 µM in [4]; 0.566 µM in test [5]; 0.446 µM in test [6]. In addition, the GI50 in [7] was 0.453 µM; in test [8], 2.37 µM; in test [9] it was 1.53 µM; in [10], 0.328 µM. Besides, the TGI in test [1] was more than 100 µM; in test [2], more than 100 µM; in test [3], more than 100 µM; in [4], more than 100 µM; in test [5] it was more than 100 µM; in [6], 47.2 µM. The TGI is 3.99 µM in [7], more than 100 µM in test [8], more than 100 µM in test [9] and more than 100 µM in test [10].

Regarding `CCC1(O)C(=O)OCc2c1cc1n(c2=O)Cc2cc3c(N)cccc3nc2-1` (configuration not stated), the TGI in test [1] was determined as 0.931 µM; in test [2], 7.21 µM; in [3] it was 2.58 µM; in test [4], 3.43 µM; in test [5] it was 0.272 µM; in test [6], 22.8 µM. For the same compound, the concentration for total growth inhibition (TGI) was 0.251 µM in [7], 0.0748 µM in [8], 0.804 µM in [9] and 0.228 µM in test [10].

In the case of `COc1ccc(-n2cc(-c3cc(OC)c(OC)c(OC)c3)[nH]c2=S)cc1OC`, the GI50 was more than 100 µM in [1]; more than 100 µM in test [2]; 76.8 µM in [3]; more than 100 µM in test [4]; more than 100 µM in test [5]; more than 100 µM in test [6]. For the same compound, the GI50 in test [7] was 57 µM; in test [8] it was more than 100 µM; in test [9], more than 100 µM; in test [10], more than 100 µM. The TGI in [1], in [2], in test [3], in [4], in test [5] and in test [6] was more than 100 µM each time. Also, the TGI in test [7], in [8], in test [9] and in test [10] was more than 100 µM in each case.

In the case of `COc1cc([C@@H]2c3cc4c(cc3C(O[C@@H]3O[C@@H]5CO[C@@H](c6cccs6)OC5[C@H](O)[C@H]3O)C3COC(=O)[C@@H]32)OCO4)cc(OC)c1O` (some centres not stated), the GI50 in test [1] was 0.0461 µM; in [2], 0.0856 µM; in test [3] it was 0.109 µM; in test [4] it was 0.207 µM; in test [5], 0.0997 µM; in test [6] it was 0.123 µM. Also, the GI50 in test [7] is 0.0659 µM; in test [8] it was 0.0283 µM; in test [9] it was 0.102 µM; in test [10], 5.22 µM. Besides, the TGI was found to be 1.25 µM in [1]; 1.09 µM in test [2]; 0.446 µM in test [3]; 0.87 µM in test [4]; 6.98 µM in [5]; 1.1 µM in test [6]. The TGI in test [7] was 0.491 µM; in test [8], 0.137 µM; in test [9], 0.81 µM; in [10], 50 µM.

`CCCCNC(=O)NS(=O)(=O)c1ccc(N2N=C(c3ccc(C)cc3C)CC2c2ccc(N(C)C)cc2)cc1` (configuration not stated): the GI50 in [1] was 2.39 µM; in test [2], 3.68 µM; in test [3], 2.25 µM; in test [4], 3.13 µM; in test [5], 3.38 µM; in [6], 4.2 µM. Further, the GI50 in [7] was 3.81 µM; in test [8] it was 6.86 µM; in [9], 8.16 µM; in [10] it was 4.12 µM. The TGI in test [1] was 31.4 µM; in test [2] it was more than 100 µM; in [3] it was 5.1 µM; in test [4] it was 8.46 µM; in test [5] it was more than 100 µM; in test [6], 19.9 µM. Further, the TGI in test [7], in [8], in [9] and in test [10] was more than 100 µM in each case.

Take `CC(=O)[O][Hg][c]1c(C)c(C)c(C)c(C)c1C`: the GI50 in [1] was 1.6 µM; in test [2], 1.93 µM; in [3] it was 1.53 µM; in test [4], 1.41 µM; in test [5], 3.02 µM; in test [6], 2.02 µM. The GI50 in [7] was 1.75 µM; in test [8] it was 2.05 µM; in test [9], 2.69 µM; in test [10], 7.17 µM. Moreover, the TGI stood at 3.12 µM in test [1]; 3.88 µM in test [2]; 3.2 µM in test [3]; 3.37 µM in test [4]; 7.69 µM in test [5]; 4.77 µM in test [6]. Moreover, the TGI amounted to 3.33 µM in test [7], 4.35 µM in test [8], 6.04 µM in [9] and 33.4 µM in [10].

Regarding `N#C/C(C(=S)Nc1ccccc1)=C1/NN=C2c3ccccc3C(=O)NN21`, the GI50 in test [1] is 29.2 µM; in test [2], 32 µM; in test [3] it was 24.1 µM; in [4], 21 µM; in test [5] it was 34.7 µM; in test [6] it was 29.2 µM. The GI50 in test [7] was 16.6 µM; in test [8] it was 44.4 µM; in [9], 19.6 µM; in test [10] it was 20.6 µM. Besides, the TGI in test [1] is 88.7 µM; in [2] it was more than 100 µM; in test [3], more than 100 µM; in test [4], 53.8 µM; in [5], more than 100 µM; in test [6] it was more than 100 µM. The TGI in test [7] was 43.5 µM; in [8] it was more than 100 µM; in test [9], 59.8 µM; in [10], 58.8 µM.

Consider `COc1ccc(C(=O)/C=C/c2cccnc2Nc2cc(OC)c(OC)c(OC)c2)cc1`, for which the GI50 in test [1] was 2.4 µM; in test [2] it was 2.2 µM; in test [3], 1.35 µM; in test [4] it was 7.27 µM; in test [5], 2.42 µM; in test [6] it was 0.38 µM. Moreover, the GI50 in [7] was 3.4 µM; in test [8], 2.19 µM; in test [9], 4.12 µM; in [10] it was 1 µM. The TGI in test [1] worked out at 11.8 µM; in test [2], 11 µM; in test [3], 2.85 µM; in test [4], 21 µM; in test [5] it was 14.7 µM; in [6], 1.6 µM. The TGI in test [7] is 17.6 µM; in [8] it was 12.7 µM; in test [9], 16.4 µM; in test [10] it was 6.29 µM.

With `C[C@]12CC[C@@H]3c4ccc(O)cc4CC[C@H]3[C@@H]1CC[C@@H]2NS(=O)(=O)c1ccc(C(F)(F)F)cc1`, the GI50 in [1] was 1.51 µM; in test [2] it was 2.54 µM; in [3] it was 2.11 µM; in [4] it was 2.13 µM; in [5], 2.78 µM; in test [6] it was 2.01 µM. In addition, the GI50 is 1.67 µM in test [7], 2 µM in [8], 2.53 µM in test [9] and 2.17 µM in test [10]. Further, the TGI in test [1] worked out at 3.28 µM; in test [2] it was 6.95 µM; in [3] it was 4.37 µM; in test [4], 4 µM; in [5], 8.06 µM; in test [6] it was 3.94 µM. Moreover, the concentration for total growth inhibition (TGI) in test [7] was determined as 3.6 µM; in test [8], 3.7 µM; in [9], 6.21 µM; in test [10], 5.7 µM.

For the compound `CN1C(NC(=O)c2ccc(Cl)nc2)=NS(=O)(=O)c2cc(Cl)ccc21`, the GI50 in [1], in [2], in [3], in test [4], in [5] and in [6] was more than 100 µM each time. Moreover, the GI50 in [7], in [8], in test [9] and in test [10] was more than 100 µM in each case. Moreover, the TGI in test [1], in [2], in [3], in test [4], in test [5] and in test [6] was more than 100 µM each time. The total growth inhibition concentration (TGI) in test [7], in test [8], in test [9] and in [10] was more than 100 µM each time.

Consider `CCCCC/C=C/C/C=C/CCCCCCCC1=NC(C)(C)CN1C(C)C`, for which the GI50 in test [1] was 1.31 µM; in test [3], 1.67 µM; in test [4], 1.85 µM; in test [5], 1.3 µM; in [6], 1.38 µM; in [7] it was 1.44 µM. Further, the values for the GI50 in [8], in [9] and in [10] were 1.58 µM, 3.07 µM and 2.32 µM, respectively. Also, the TGI in test [1] was 3.37 µM; in test [3] it was 3.06 µM; in test [4], 3.35 µM; in [5], 2.57 µM; in test [6], 2.74 µM; in test [7], 2.87 µM. For the same compound, the TGI was found to be 3.17 µM in test [8], 12.6 µM in [9] and 7.44 µM in test [10].
